Data taken from US20260258064A1 (SIRONAX LTD., priority 2023, published 2026).
pIC50: −log10 of the molar value.

Target: T1, SARM1 (50-724) (Homo sapiens, UniProt Q6SZW1)
T1 construct: Purified SARM1 (50-724) with a final concentration of 2 nM was pre-incubated with a test compound
T1 sequence (Q6SZW1 50-724): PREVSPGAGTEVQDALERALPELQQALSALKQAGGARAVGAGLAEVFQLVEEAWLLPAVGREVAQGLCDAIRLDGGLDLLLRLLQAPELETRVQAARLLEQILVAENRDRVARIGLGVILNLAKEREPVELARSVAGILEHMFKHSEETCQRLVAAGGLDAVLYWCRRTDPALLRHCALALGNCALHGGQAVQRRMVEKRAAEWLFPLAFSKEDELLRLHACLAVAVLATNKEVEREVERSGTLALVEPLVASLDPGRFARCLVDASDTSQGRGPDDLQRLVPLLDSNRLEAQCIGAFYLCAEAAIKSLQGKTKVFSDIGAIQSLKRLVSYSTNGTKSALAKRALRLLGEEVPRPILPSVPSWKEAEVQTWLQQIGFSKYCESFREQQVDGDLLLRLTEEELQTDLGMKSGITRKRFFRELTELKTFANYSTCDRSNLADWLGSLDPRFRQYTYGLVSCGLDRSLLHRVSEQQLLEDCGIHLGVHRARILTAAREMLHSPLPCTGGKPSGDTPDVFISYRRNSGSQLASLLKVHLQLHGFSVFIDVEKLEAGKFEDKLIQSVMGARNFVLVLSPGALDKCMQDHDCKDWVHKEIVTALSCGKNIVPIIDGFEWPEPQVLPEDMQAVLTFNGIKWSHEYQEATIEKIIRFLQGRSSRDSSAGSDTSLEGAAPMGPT
Test: SARM1 (50-724) enzymatic assay (LC-MS/MS)
Format: biochemical
Conditions: Purified SARM1 (50-724) 2 nM, NMN as activator, NAD+ as substrate, 1 h at room temperature, read-out: IC50 (SARM1 inhibitory activity)
Method in brief: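 Reaction buffer was Dulbecco's PBS. Compound and 2 nM human SARM1 (50-724) were pre-incubated 15 min at room temperature, then […] NAD^+ and 200 µM NMN activator were added for 1 h at room temperature. Acetonitrile (70%) stop, LC-MS/MS read-out, IC50 values.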

`CS(=O)(=O)Cc1nnc(-c2nc3cc(C(F)(F)F)ccc3[nH]2)n1-c1cccc(Cl)c1Cl` [Example 88, 2-(4-(2,3-dichlorophenyl)-5-((methylsulfonyl)methyl)-4H-1,2,4-triazol-3-yl)-5-(trifluoromethyl)-1H-benzo[d]imidazole] showed a pIC50 of no less than 7.00.

Molecule `NC(=O)c1ncc(-c2nc3cc(C(F)(F)F)ccc3[nH]2)n1-c1cccc(Cl)c1Cl` [Example 89, 1-(2,3-dichlorophenyl)-5-(5-(trifluoromethyl)-1H-benzo[d]imidazol-2-yl)-1H-imidazole-2-carboxamide] has a pIC50 of 6.30 to 7.00.

`OCc1nnc(-c2nc3cc(C(F)(F)F)ccc3[nH]2)n1-c1cccc(Cl)c1Cl` [Example 90] was tested, and the pIC50 was no less than 7.00.

`N#Cc1c(Cl)cccc1-n1cnnc1-c1nc2cc(C(F)(F)F)ccc2[nH]1` [Example 91] was tested, and the pIC50 was less than 6.00.

In the case of `FC(F)(F)c1ccc2[nH]c(-c3cnsc3-c3cccc(Cl)c3Cl)nc2c1` [Example 92], the pIC50 was 6.30 to 7.00.

For `Cc1ccc2[nH]c(-c3nncn3-c3cccc(Cl)c3Cl)nc2c1C` [Example 93, 2-(4-(2,3-dichlorophenyl)-4H-1,2,4-triazol-3-yl)-4,5-dimethyl-1H-benzo[d]imidazole], the pIC50 was no less than 7.00.

`C[S+]([O-])c1c(Br)ccc2[nH]c(-c3nncn3-c3cccc(Cl)c3Cl)nc12` (stereo not shown) [Example 94, 5-bromo-2-(4-(2,3-dichlorophenyl)-4H-1,2,4-triazol-3-yl)-4-(methylsulfinyl)-1H-benzo[d]imidazole] gave a pIC50 of 6.00 to 6.30.

In the case of `CS(=O)(=O)c1c(Br)ccc2[nH]c(-c3nncn3-c3cccc(Cl)c3Cl)nc12` [Example 95, 5-bromo-2-(4-(2,3-dichlorophenyl)-4H-1,2,4-triazol-3-yl)-4-(methylsulfonyl)-1H-benzo[d]imidazole], the pIC50 was less than 6.00.

With `CC(C)(O)c1ccc2[nH]c(-c3nncn3-c3cccc(Cl)c3Cl)nc2c1` [Example 96, 2-(2-(4-(2,3-dichlorophenyl)-4H-1,2,4-triazol-3-yl)-1H-benzo[d]imidazol-5-yl)propan-2-ol] the pIC50 was no less than 7.00.

`Cn1cc(-c2ccc(Cl)cc2)c(-c2nc3cc(C(F)(F)F)ccc3[nH]2)cc1=O` [Example 98] showed a pIC50 of less than 6.00.

Work on `FC(F)(F)c1ccc2[nH]c(-c3nnnn3-c3cccc(Cl)c3Cl)nc2c1` [Example 99] yielded a pIC50 of 6.30 to 7.00.

With `Clc1cccc(-n2cnnc2-c2nc3cc(-c4cscn4)ccc3[nH]2)c1Cl` [Example 100, 4-(2-(4-(2,3-dichlorophenyl)-4H-1,2,4-triazol-3-yl)-1H-benzo[d]imidazol-5-yl)thiazole] the pIC50 was no less than 7.00.

`COC(=O)C(C)c1ccc2[nH]c(-c3nncn3-c3cccc(Cl)c3Cl)nc2c1` (stereo not shown) [Example 101, methyl 2-(2-(4-(2,3-dichlorophenyl)-4H-1,2,4-triazol-3-yl)-1H-benzo[d]imidazol-5-yl)propanoate] was tested, and the pIC50 was no less than 7.00.

With `COC(=O)C(C)(C)c1ccc2[nH]c(-c3nncn3-c3cccc(Cl)c3Cl)nc2c1` [Example 102] the pIC50 was no less than 7.00.

Work on `CC(C)(CO)c1ccc2[nH]c(-c3nncn3-c3cccc(Cl)c3Cl)nc2c1` [Example 103] yielded a pIC50 of no less than 7.00.

Work on `CC(CO)c1ccc2[nH]c(-c3nncn3-c3cccc(Cl)c3Cl)nc2c1` (stereo not shown) [Example 104, 2-(2-(4-(2,3-dichlorophenyl)-4H-1,2,4-triazol-3-yl)-1H-benzo[d]imidazol-5-yl)propan-1-ol] yielded a pIC50 of no less than 7.00.

With `FC(F)(F)c1ccc2[nH]c(-c3nncn3-c3ccccc3Cl)nc2c1` [Example 105] the pIC50 was no less than 7.00.

With `FC(F)(F)c1ccc2[nH]c(-c3nncn3-c3nsc(Cl)c3Cl)nc2c1` [Example 106] the pIC50 was no less than 7.00.

In the case of `CC(C)(C(N)=O)c1ccc2[nH]c(-c3nncn3-c3cccc(Cl)c3Cl)nc2c1` [Example 107], the pIC50 was no less than 7.00.

For `FC(F)(F)c1ccc2[nH]c(-c3nnc(S)n3-c3cccc(Cl)c3Cl)nc2c1` [Example 108, 4-(2,3-dichlorophenyl)-5-(5-(trifluoromethyl)-1H-benzo[d]imidazol-2-yl)-4H-1,2,4-triazole-3-thiol], the pIC50 was 6.30 to 7.00.

Work on `COC(C)(C)c1ccc2[nH]c(-c3nncn3-c3cccc(Cl)c3Cl)nc2c1` [Example 110] yielded a pIC50 of no less than 7.00.

`OC1(c2ccc3[nH]c(-c4nncn4-c4cccc(Cl)c4Cl)nc3c2)CCC1` [Example 111] gave a pIC50 of no less than 7.00.

With `CC(C)(C#N)c1ccc2[nH]c(-c3nncn3-c3cccc(Cl)c3Cl)nc2c1` [Example 112] the pIC50 was no less than 7.00.

`O=C(O)C1(c2ccc3[nH]c(-c4nncn4-c4cccc(Cl)c4Cl)nc3c2)CCC1` [Example 113] showed a pIC50 of no less than 7.00.

For `COc1ccc(Cl)c(-n2cnnc2-c2nc3cc(C(F)(F)F)ccc3[nH]2)n1` [Example 114], the pIC50 was no less than 7.00.

`Oc1ccc(Cl)c(-n2cnnc2-c2nc3cc(C(F)(F)F)ccc3[nH]2)n1` [Example 115] showed a pIC50 of no less than 7.00.

In the case of `FC(F)(F)c1ccc2[nH]c(-c3nnc(OC4COC4)n3-c3cccc(Cl)c3Cl)nc2c1` [Example 117, 2-(4-(2,3-dichlorophenyl)-5-(oxetan-3-yloxy)-4H-1,2,4-triazol-3-yl)-5-(trifluoromethyl)-1H-benzo[d]imidazole], the pIC50 was 6.30 to 7.00.

`Cc1nsc(Cl)c1-n1cnnc1-c1nc2cc(C(F)(F)F)ccc2[nH]1` [Example 118] gave a pIC50 of no less than 7.00.

Molecule `FC(F)(F)c1ccc2[nH]c(-c3nncn3-c3cccc(Cl)c3Br)nc2c1` [Example 119] has a pIC50 of no less than 7.00.

`Fc1ccc(-n2cnnc2-c2nc3cc(C(F)(F)F)ccc3[nH]2)c(Cl)c1F` [Example 120] was tested, and the pIC50 was no less than 7.00.

With `OCCc1nnc(-c2nc3cc(C(F)(F)F)ccc3[nH]2)n1-c1cccc(Cl)c1Cl` [Example 121, 2-(4-(2,3-Dichlorophenyl)-5-(5-(trifluoromethyl)-1H-benzo[d]imidazol-2-yl)-4H-1,2,4-triazol-3-yl)ethan-1-ol] the pIC50 was no less than 7.00.

With `NC(=O)Cc1nnc(-c2nc3cc(C(F)(F)F)ccc3[nH]2)n1-c1cccc(Cl)c1Cl` [Example 122, 2-[4-(2,3-Dichlorophenyl)-5-[5-(trifluoromethyl)-1H-benzimidazol-2-yl]-1,2,4-triazol-3-yl]acetamide] the pIC50 was no less than 7.00.

`Cc1cncc(-n2cnnc2-c2nc3cc(C(F)(F)F)ccc3[nH]2)c1Cl` [Example 123] showed a pIC50 of no less than 7.00.

For `FC(F)(F)c1ccc2[nH]c(-c3nnc(COC4COC4)n3-c3cccc(Cl)c3Cl)nc2c1` [Example 124], the pIC50 was no less than 7.00.

Molecule `FC(F)(F)c1ccc2[nH]c(-c3nnc(CN4CCC4)n3-c3cccc(Cl)c3Cl)nc2c1` [Example 125] has a pIC50 of no less than 7.00.

Molecule `OCCOCc1nnc(-c2nc3cc(C(F)(F)F)ccc3[nH]2)n1-c1cccc(Cl)c1Cl` [Example 126] has a pIC50 of no less than 7.00.

Molecule `OC1CC(OCc2nnc(-c3nc4cc(C(F)(F)F)ccc4[nH]3)n2-c2cccc(Cl)c2Cl)C1` (stereo not shown) [Example 127] has a pIC50 of no less than 7.00.

`Clc1cccc(-n2cnnc2-c2nc3cc(C4CCOC4)ccc3[nH]2)c1Cl` (stereo not shown) [Example 128, 2-(4-(2,3-dichlorophenyl)-4H-1,2,4-triazol-3-yl)-5-(tetrahydrofuran-3-yl)-1H-benzo[d]imidazole] was tested, and the pIC50 was no less than 7.00.

`CCOC(=O)C1(c2ccc3[nH]c(-c4nncn4-c4cccc(Cl)c4Cl)nc3c2)CCC1` [Example 129] gave a pIC50 of no less than 7.00.

Work on `OCC1(c2ccc3[nH]c(-c4nncn4-c4cccc(Cl)c4Cl)nc3c2)CCC1` [Example 130] yielded a pIC50 of no less than 7.00.

For `FC(F)(F)Oc1ccc2[nH]c(-c3nncn3-c3cccc(Cl)c3Cl)nc2c1` [Example 132, 2-(4-(2,3-dichlorophenyl)-4H-1,2,4-triazol-3-yl)-5-(trifluoromethoxy)-1H-benzo[d]imidazole], the pIC50 was no less than 7.00.

For `OC1(c2ccc3[nH]c(-c4nncn4-c4cccc(Cl)c4Cl)nc3c2)CC1` [Example 133], the pIC50 was no less than 7.00.

`OC1(c2ccc3[nH]c(-c4nncn4-c4ccc(F)c(F)c4Cl)nc3c2)CC1` [Example 134] showed a pIC50 of no less than 7.00.

With `N#CC1(c2ccc3[nH]c(-c4nncn4-c4ccc(F)c(F)c4Cl)nc3c2)CC1` [Example 135] the pIC50 was no less than 7.00.

`O=C1CCCN1c1ccc2[nH]c(-c3nncn3-c3cccc(Cl)c3Cl)nc2c1` [Example 137, 1-(2-(4-(2,3-dichlorophenyl)-4H-1,2,4-triazol-3-yl)-1H-benzo[d]imidazol-5-yl)pyrrolidin-2-one] was tested, and the pIC50 was less than 6.00.

For `CC(C)Oc1ccc2[nH]c(-c3nncn3-c3cccc(Cl)c3Cl)nc2c1` [compound 109], the pIC50 was no less than 7.00.
